pIC50: −log10 of the molar value. Where two headings read alike, the source gives them in different places.
Assays:
HCV replicon 1A = test: Cell-based HCV Replicon Assay A, replicon 1A
Outline: (§1)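 Replicon cells seeded at 2000 cells/well with compound, 10 serial dilutions starting at 333.3 nM to 1.667 nM, 0.5% DMSO, 5% FBS, harvested on day 3. Replicon RNA measured by multiplex TaqMan RT-PCR with cyclophilin as endogenous control, quantified from standard curves of Ct vs log ng RNA.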

HCV replicon 1AY93H = test: Cell-based HCV Replicon Assay A, replicon 1AY93H; conditions: for IC50: Hepatitis C virus, read-out: 1A Y93H IC50 (nM), replicon 1AY93H
Outline: as §1

HCV replicon 2B = test: Cell-based HCV Replicon Assay A, replicon 2B; conditions: for IC50: Hepatitis C virus, read-out: 2B IC50 (nM), replicon 2B; for pIC50: read-out: 2B IC50, replicon 2B
Outline: as §1

HCV replicon 1B = test: Cell-based HCV Replicon Assay B, replicon 1B
Protocol: In an alternate assay (“Replicon Assay B”), 1000 cells were seeded per well in a 384-well collagen coated black plate from Greiner bio-one (Cat #781946) in 5% FBS. Inhibitors of this invention were added at 24 h post-seeding, and the plates were incubated for 3 days. Cells were subsequently lysed with Qiagen lysis buffer (Cat #1062731) to extract the RNA. HCV replicon RNA level was measured by real-time PCR using the RNA-to-CT kit from Applied Biosystem (Cat #4392656) and genotype-specific primers and probes. The amplicon was located within NS5B. The sequence of the PCR primers are as follows: 5B.2F, ATGGACAGGCGCCCTGA (SEQ. ID NO. 1); 5B.2R, […] (SEQ. ID NO. 2); the probe sequence was FAM-labeled CACGCCATGCGCTGCGG (SEQ. ID NO. 3). To detect genotype 1A the primer 1A F, TGCGGAACCGGTGAGTACA and 1A R, […] were used; the probe sequence was FAM-[…].
The real-time RT-PCR reactions were run on ABI PRISM 7900HT or Viia7 Sequence Detection System using the following program: 48° C. for 30 minutes, 95° C. for 10 minutes, 40 cycles of 95° C. for 15 sec, 60° C. for 1 minutes. The 50% effective concentration (EC50) was the drug concentration necessary to achieve an increase in the cycle threshold (CT) of 1 over the projected baseline CT.
Data was obtained for various compounds of the present invention using the methods described in the Example above, and is presented in the table immediately below. Data for replicons 1A, 1AY93H and 2B were obtained using Replicon Assay A and data for replicons 1AQ30D and 1B were obtained using Replicon Assay B.

[1] = read-out: 1A Y93H IC50, replicon 1AY93H

Structure (SMILES)	pIC50 (HCV replicon 1A; Hepatitis C virus)	IC50 (HCV replicon 1AY93H) [nM]	IC50 (HCV replicon 2B) [nM]	pIC50 (HCV replicon 1B; Hepatitis C virus)	pIC50 (HCV replicon 1AY93H; [1])	pIC50 (HCV replicon 2B)	pIC50 (HCV replicon 1A)	pIC50 (HCV replicon 1B)	pIC50 (HCV replicon 1AY93H; replicon 1AY93H, read-out: 1A Y93H IC50)
COC(=O)N[C@H](C(=O)N1CCC[C@H]1c1ncc(-c2cc(F)c3c(c2)OC(c2csnn2)n2c-3cc3cc(-c4cnc([C@@H]5CCCN5C(=O)[C@@H](NC(=O)OC)C(C)C)[nH]4)ccc32)[nH]1)C(C)C (mixture of isomers) [Compound 501]	11.41	0.857	1.32	11.44					
COCc1ncc(C2Oc3cc(-c4cnc([C@@H]5CCCN5C(=O)[C@@H](NC(=O)OC)C(C)C)[nH]4)cc(F)c3-c3cc4cc(-c5cnc([C@@H]6CCCN6C(=O)[C@@H](NC(=O)OC)C(C)C)[nH]5)ccc4n32)s1 (single isomer, unassigned) [Compound 17]	11.92			11.70	9.00	9.28			
COC(=O)N[C@H](C(=O)N1CCC[C@H]1c1ncc(-c2cc(F)c3c(c2)OC(c2cnc(-c4ccc(OC)cc4)s2)n2c-3cc3cc(-c4cnc([C@@H]5CCCN5C(=O)[C@@H](NC(=O)OC)C(C)C)[nH]4)ccc32)[nH]1)C(C)C (single isomer, unassigned) [Compound 46]					9.27	9.60	11.74	12.00	
CCCc1ncc(C2Oc3cc(-c4cnc([C@@H]5CCCN5C(=O)[C@@H](NC(=O)OC)C(C)C)[nH]4)cc(F)c3-c3cc4cc(-c5cnc([C@@H]6CCCN6C(=O)C(NC(=O)OC)C6CCOC(C)(C)C6)[nH]5)ccc4n32)s1 (single isomer, unassigned) [Compound 60]					9.40	9.74	11.40	11.40	
COC(=O)NC(C(=O)N1CCC[C@H]1c1ncc(-c2ccc3c(c2)cc2n3C(c3cnc(C(C)(C)O)s3)Oc3cc(-c4cnc([C@@H]5CCCN5C(=O)[C@@H](NC(=O)OC)C(C)C)[nH]4)cc(F)c3-2)[nH]1)C1C[C@@H](C)O[C@@H](C)C1 (single isomer, unassigned) [Compound 73]	11.24			11.30	9.23	9.84			
COC(=O)N[C@H](C(=O)N1CCC[C@H]1c1ncc(-c2cc(F)c3c(c2)OC(c2cnc(-c4ccc(F)cc4F)s2)n2c-3cc3cc(-c4cnc([C@@H]5CCCN5C(=O)[C@@H](NC(=O)OC)C(C)C)[nH]4)ccc32)[nH]1)C(C)C (single isomer, unassigned) [Compound 98]	11.57			11.92	11.00	11.52			
COC(=O)NC(C(=O)N1CCC[C@H]1c1ncc(-c2ccc3c(c2)cc2n3C(c3cnc(C4CCCC4)s3)Oc3cc(-c4cnc([C@@H]5CCCN5C(=O)[C@@H](NC(=O)OC)C(C)C)[nH]4)cc(F)c3-2)[nH]1)C1CCOC(C)(C)C1 (single isomer, unassigned) [Compound 111]	11.66	0.005	0.003	11.70					
COC(=O)N[C@H](C(=O)N1CCC[C@H]1c1ncc(-c2cc(C)c3c(c2)OC(c2cnc(C4CCC4)s2)n2c-3cc3cc(-c4cnc([C@@H]5C[C@H]6C[C@H]6N5C(=O)[C@@H](NC(=O)OC)C(C)C)[nH]4)ccc32)[nH]1)C(C)C (single isomer, unassigned) [Compound 207]	11.52	0.26	0.25	11.30					
COC(=O)NC(C(=O)N1[C@@H]2C[C@@H]2C[C@H]1c1ncc(-c2ccc3c(c2)cc2n3C(c3cnc(C4CC4)s3)Oc3cc(-c4cnc([C@@H]5CCCN5C(=O)[C@@H](NC(=O)OC)C(C)C)[nH]4)cc(C)c3-2)[nH]1)C1C[C@@H](C)O[C@@H](C)C1 (single isomer, unassigned) [Compound 216]	11.62			11.40	9.53	10.07			
COC(=O)N[C@H](C(=O)N1CCC[C@H]1c1ncc(-c2cc(F)c3c(c2)OC(c2cnc(C(C)(C)C)s2)n2c-3cc3cc(-c4cnc([C@@H]5CCCN5C(=O)[C@@H](NC(=O)OC)C(C)C)[nH]4)ccc32)[nH]1)C(C)C (single isomer, unassigned) [Compound 303]					10.32	9.03	11.59	11.52	
COC(=O)NC(C(=O)N1[C@@H]2C[C@@H]2C[C@H]1c1ncc(-c2ccc3c(c2)cc2n3C(c3cnc(C4CC4)s3)Oc3cc(-c4cnc([C@@H]5CCCN5C(=O)[C@@H](NC(=O)OC)C(C)C)[nH]4)cc(F)c3-2)[nH]1)C1CCOC(C)(C)C1 (single isomer, unassigned) [Compound 313]	11.49	0.231		10.35		9.91			
COC(=O)NC(C(=O)N1CCC[C@H]1c1ncc(-c2ccc3c(c2)cc2n3C(c3cnc(C(C)(C)C)s3)Oc3cc(-c4cnc([C@@H]5CCCN5C(=O)[C@@H](NC(=O)OC)C(C)C)[nH]4)cc(F)c3-2)[nH]1)C1CCOC(C)(C)C1 (single isomer, unassigned) [Compound 315]				11.70	11.55	11.40	11.57		
COC(=O)NC(C(=O)N1CCC[C@H]1c1ncc(-c2ccc3c(c2)cc2n3C(c3cnc(C(C)(C)C)s3)Oc3cc(-c4cnc([C@@H]5CCCN5C(=O)[C@@H](NC(=O)OC)C(C)C)[nH]4)cc(F)c3-2)[nH]1)C1CCOC(C)(C)C1 (single isomer, unassigned) [Compound 316]					10.79	10.92	11.96	11.40	
COC(=O)N[C@H](C(=O)N1CCC[C@H]1c1ncc(-c2cc(F)c3c(c2)OC(c2csc(C4CC4)n2)n2c-3cc3cc(-c4cnc([C@@H]5CCCN5C(=O)[C@@H](NC(=O)OC)C(C)C)[nH]4)ccc32)[nH]1)C(C)C (single isomer, unassigned) [Compound 432]	12.00			12.00	8.59	8.40			
COC(=O)NC(C(=O)N1CCC[C@H]1c1ncc(-c2ccc3c(c2)cc2n3C(c3sc(C(C)C)nc3C)Oc3cc(-c4cnc([C@@H]5CCCN5C(=O)[C@@H](NC(=O)OC)C(C)C)[nH]4)cc(F)c3-2)[nH]1)C1CCOC(C)(C)C1 (single isomer, unassigned) [Compound 434]	11.64	0.729	0.293	11.46					
COC(=O)NC(C(=O)N1CCC[C@H]1c1ncc(-c2ccc3c(c2)cc2n3C(c3sc(C(C)C)nc3C)Oc3cc(-c4cnc([C@@H]5CCCN5C(=O)[C@@H](NC(=O)OC)C(C)C)[nH]4)cc(F)c3-2)[nH]1)C1CCOC(C)(C)C1 (single isomer, unassigned) [Compound 435]					9.21	9.74	11.55	11.42	
COC(=O)NC(C(=O)N1CCC[C@H]1c1ncc(-c2ccc3c(c2)cc2n3C(c3cnc(C4(C)CC4)s3)Oc3cc(-c4cnc([C@@H]5CCCN5C(=O)[C@@H](NC(=O)OC)C(C)C)[nH]4)cc(F)c3-2)[nH]1)C1CCOC(C)(C)C1 (single isomer, unassigned) [Compound 459]					9.53	10.08	11.64	11.52	
COC(=O)NC(C(=O)N1CCC[C@H]1c1ncc(-c2ccc3c(c2)cc2n3C(c3cnc(C4(C)CC4)s3)Oc3cc(-c4cnc([C@@H]5CCCN5C(=O)[C@@H](NC(=O)OC)C(C)C)[nH]4)cc(F)c3-2)[nH]1)C1CCOC(C)(C)C1 (single isomer, unassigned) [Compound 460]					9.54	9.86	11.57	11.41	
COC(=O)NC(C(=O)N1CCC[C@H]1c1ncc(-c2ccc3c(c2)cc2n3C(c3cnc(C4(C)CC4)s3)Oc3cc(-c4cnc([C@@H]5CCCN5C(=O)[C@@H](NC(=O)OC)C(C)C)[nH]4)cc(F)c3-2)[nH]1)C1C[C@@H](C)O[C@@H](C)C1 (single isomer, unassigned) [Compound 461]	11.66			11.42	9.49	9.88			
COC(=O)N[C@H](C(=O)N1CCC[C@H]1c1ncc(-c2cc(F)c3c(c2)OC(c2sc(C(C)C)nc2C)n2c-3cc3cc(-c4cnc([C@@H]5CCCN5C(=O)[C@@H](NC(=O)OC)C(C)C)[nH]4)ccc32)[nH]1)C(C)C (single isomer, unassigned) [Compound 516]					8.49		11.77	11.59	
COC(=O)N[C@H](C(=O)N1CCC[C@H]1c1ncc(-c2cc(F)c3c(c2)OC(c2cnc(C4CC4)s2)n2c-3cc3cc(-c4cnc([C@@H]5CC6(C)CC6N5C(=O)[C@@H](NC(=O)OC)C(C)C)[nH]4)ccc32)[nH]1)C(C)C (single isomer, unassigned) [Compound 520]							11.48	11.43	8.57

Source: patent US9555038B2, “Heterocycle-substituted tetracyclic compounds and methods of use thereof for the treatment of viral diseases” (Merck Sharp & Dohme Corp., priority 2013, dated 2017)
